From US20150238601A1, “TREATMENT OF OCULAR DISORDERS” (KADMON CORPORATION, LLC, priority 2012, published 2015) come the findings set out here.

The target of assay [1] is T1, ROCK1 (Homo sapiens, UniProt Q13464). In words: biochemical.
Method: Dose response curves for Rho-kinase inhibition were derived from a Millipore immuno-based 96 well plate assay (Millipore catalog number CSA001). Purified active ROCK1 and ROCK2 were obtained from Invitrogen (catalog numbers ROCKI, PV3691 and ROCK2, PV3759). The kit components include assay plates, which are pre-coated with recombinant MYPT1, which contains a specifically phosphorylatable Thr696. The inhibitory activities of compounds are measured according to the manufactures protocol. […] The assay proceeds at 300 Celsius for 30 minutes with gentle shaking at 120 rpm. The assay is terminated by washing of the plate 3 times with Tris-buffered saline and tween wash buffer. Anti-phospho-MYPT1 (Thr696) antibody is added to each well to detect the phosphorylated substrate and incubated for 1 hour at room temperature after which HRP conjugated anti-rabbit IgG secondary is added for 1 hour at room temperature. After washing the assay is developed using a substrate reagent and the absorbance is read at 450 nm on a Tecan Infinite M1000 reflecting the relative remaining ROCK phosphorylation activity.
In assay [2] the target is T1, ROCK1. Kind of assay: Invitrogen Z'-LYTE Kinase Assay. The assay is classed as biochemical. The settings on record: 5 uM ATP, ROCK1 0.18 ug/mL. The arrangement: purchased Invitrogen PV3691.
Source text: (§2) Dose response curves for Rho-kinase inhibition were derived from a Invitrogen Z′-LYTE™ Kinase Assay Kit (Invitrogen catalog number PV3793). Purified active ROCK1 and ROCK2 were obtained from Invitrogen (catalog numbers ROCK1, PV3691 and ROCK2, PV3759). The kit components include a coumarin and fluorescein labeled peptide based on myosin light chain 2 ([sequence]), a proprietary protease containing development reagent and a proprietary Stop buffer used to terminate the development reaction. The inhibitory activities of compounds are measured according to the manufactures protocol. […] The assay proceeds at room temperature for 1 hour followed by the addition of development reagent, and further incubation for 1 hour at room temperature. […] By comparing the emission ratios of the test samples against control samples, percent phosphorylation values are calculated and the concentration of inhibitor that produces 1/2 inhibition of kinase activity (IC50) is determined using Prism.
For another assay, the target named is T2, ROCK2 (Homo sapiens, UniProt O75116).
T2 construct: purchased Invitrogen PV3759
T2 sequence (O75116 whole entry): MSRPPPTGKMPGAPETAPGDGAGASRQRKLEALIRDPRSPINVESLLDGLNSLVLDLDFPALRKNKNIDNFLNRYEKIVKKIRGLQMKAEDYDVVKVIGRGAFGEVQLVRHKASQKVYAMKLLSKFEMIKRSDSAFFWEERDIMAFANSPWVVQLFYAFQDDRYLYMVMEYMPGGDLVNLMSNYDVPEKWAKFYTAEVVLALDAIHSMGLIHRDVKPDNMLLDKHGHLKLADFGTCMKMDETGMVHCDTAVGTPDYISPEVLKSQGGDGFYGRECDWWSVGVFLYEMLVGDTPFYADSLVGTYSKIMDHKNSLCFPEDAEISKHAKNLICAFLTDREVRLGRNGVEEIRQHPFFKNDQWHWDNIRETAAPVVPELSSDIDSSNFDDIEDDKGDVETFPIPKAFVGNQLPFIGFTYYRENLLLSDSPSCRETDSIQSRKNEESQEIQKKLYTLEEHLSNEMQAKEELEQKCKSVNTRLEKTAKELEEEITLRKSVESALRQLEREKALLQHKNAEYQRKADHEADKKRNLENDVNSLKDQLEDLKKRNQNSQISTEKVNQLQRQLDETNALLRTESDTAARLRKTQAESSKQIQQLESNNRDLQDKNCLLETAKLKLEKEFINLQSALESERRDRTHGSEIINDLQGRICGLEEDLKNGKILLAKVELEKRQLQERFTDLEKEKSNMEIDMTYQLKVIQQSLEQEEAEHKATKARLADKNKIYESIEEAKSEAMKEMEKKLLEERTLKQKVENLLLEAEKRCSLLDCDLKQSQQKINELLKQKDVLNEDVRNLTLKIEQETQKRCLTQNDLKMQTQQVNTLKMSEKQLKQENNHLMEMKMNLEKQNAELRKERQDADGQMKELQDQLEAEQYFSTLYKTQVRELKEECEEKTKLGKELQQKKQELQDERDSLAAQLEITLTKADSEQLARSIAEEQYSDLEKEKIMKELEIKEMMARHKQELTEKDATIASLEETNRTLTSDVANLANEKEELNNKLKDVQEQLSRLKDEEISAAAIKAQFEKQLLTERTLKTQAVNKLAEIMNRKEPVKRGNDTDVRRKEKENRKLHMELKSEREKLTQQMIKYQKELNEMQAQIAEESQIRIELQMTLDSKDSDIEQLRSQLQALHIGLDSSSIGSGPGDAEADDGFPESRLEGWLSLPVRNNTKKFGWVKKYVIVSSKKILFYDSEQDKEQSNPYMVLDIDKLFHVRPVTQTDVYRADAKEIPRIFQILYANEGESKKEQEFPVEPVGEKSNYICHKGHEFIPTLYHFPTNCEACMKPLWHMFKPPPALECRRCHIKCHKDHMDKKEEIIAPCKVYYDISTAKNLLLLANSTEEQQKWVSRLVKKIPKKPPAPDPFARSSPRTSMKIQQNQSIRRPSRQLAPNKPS
In words: Invitrogen Z'-LYTE Kinase Assay. The assay is classed as biochemical.

Assay [3] concerns subfoveal choroidal neovascularization (CNV) lesion secondary to AMD. In words: study in subjects with subfoveal CNV lesion secondary to AMD. The assay is classed as in vivo, human. The settings on record: Example 43 with Mab 106 vs Mab 106, six months. How it is done: A study is conducted of 50 men and women having subfoveal choroidal neovascularization (CNV) lesion secondary to AMD. […] Subjects are observed over six months to determine intraocular inflammation, macular thickness, and the status of macular perfusion. Visual acuity is also measured over the time period.

In assay [4] the test system is proliferative diabetic retinopathy. In words: preoperative treatment of proliferative diabetic retinopathy / diabetic macular edema. The settings on record: with pegaptanib, compared to pegaptanib alone, intravitreal, 8 weeks after surgery. The assay is classed as in vivo, human. How it is done: The agents are administered by intravitreal injection. Subjects are evaluated over 8 weeks following surgery as to post operative rebleed, macular edema post injection, and pre- and post-injection levels of VEGF165. It is expected that compared to pegaptanib alone, administration of compound 154 results in reduced bleeding and macular edema.

Assay [5] has as its system CD4+ T cells from peripheral blood of RA patients. In words: CD4+ T cells of RA patients stimulated with anti-CD3/CD28 ex vivo. The assay is classed as cell-based, human.
The next assay deals with STAT3 phosphorylation. In words: STAT3 phosphorylation in T cells. The assay is classed as cell-based. How it is done: STAT3 plays a critical role in Th17 differentiation via regulation of RORγt expression and direct binding to the IL-17 and IL-21 promoters. […] In a different experiment, cells we cultured under Th17-skewing conditions for 5 days and then treated with the ROCK2 selective inhibitor for 3 hours.

In assay [6] the test system is CD4+ human T cells. In words: T cell proliferation in response to TCR stimulation in vitro. The assay is classed as cell-based. An excerpt: (§1) Activation of resting T cells, resulting in cytokine secretion and proliferation, involves two distinct signals from antigen-presenting cells (APCs), mimicked by co-stimulation of the T cell receptor (TCR)/CD3 complex and the CD28 receptor.

Assay [7] has as its system CD4+ human T cells. Kind of assay: cytokine secretion of anti-CD3/CD28 stimulated CD4+ T cells in vitro. The assay is classed as cell-based. The settings on record: anti-CD3/CD28 stimulation.
Source text: as §1

[8] abbreviates: Z'-LYTE, 12 uM ATP, ROCK2 0.8 ug/mL, read-out: ROCK2 IC50.
The mark [9] stands for this setting: 2 RA patients, intracellular staining.
The mark [10] stands for this setting: RA patients, ex vivo, TCR stimulation.

The structures appear in SMILES notation. Counter-ions that a name gives are not always drawn. Like-named read-outs stand apart in the source and are kept apart here.

T1 sequence (Q13464 whole entry): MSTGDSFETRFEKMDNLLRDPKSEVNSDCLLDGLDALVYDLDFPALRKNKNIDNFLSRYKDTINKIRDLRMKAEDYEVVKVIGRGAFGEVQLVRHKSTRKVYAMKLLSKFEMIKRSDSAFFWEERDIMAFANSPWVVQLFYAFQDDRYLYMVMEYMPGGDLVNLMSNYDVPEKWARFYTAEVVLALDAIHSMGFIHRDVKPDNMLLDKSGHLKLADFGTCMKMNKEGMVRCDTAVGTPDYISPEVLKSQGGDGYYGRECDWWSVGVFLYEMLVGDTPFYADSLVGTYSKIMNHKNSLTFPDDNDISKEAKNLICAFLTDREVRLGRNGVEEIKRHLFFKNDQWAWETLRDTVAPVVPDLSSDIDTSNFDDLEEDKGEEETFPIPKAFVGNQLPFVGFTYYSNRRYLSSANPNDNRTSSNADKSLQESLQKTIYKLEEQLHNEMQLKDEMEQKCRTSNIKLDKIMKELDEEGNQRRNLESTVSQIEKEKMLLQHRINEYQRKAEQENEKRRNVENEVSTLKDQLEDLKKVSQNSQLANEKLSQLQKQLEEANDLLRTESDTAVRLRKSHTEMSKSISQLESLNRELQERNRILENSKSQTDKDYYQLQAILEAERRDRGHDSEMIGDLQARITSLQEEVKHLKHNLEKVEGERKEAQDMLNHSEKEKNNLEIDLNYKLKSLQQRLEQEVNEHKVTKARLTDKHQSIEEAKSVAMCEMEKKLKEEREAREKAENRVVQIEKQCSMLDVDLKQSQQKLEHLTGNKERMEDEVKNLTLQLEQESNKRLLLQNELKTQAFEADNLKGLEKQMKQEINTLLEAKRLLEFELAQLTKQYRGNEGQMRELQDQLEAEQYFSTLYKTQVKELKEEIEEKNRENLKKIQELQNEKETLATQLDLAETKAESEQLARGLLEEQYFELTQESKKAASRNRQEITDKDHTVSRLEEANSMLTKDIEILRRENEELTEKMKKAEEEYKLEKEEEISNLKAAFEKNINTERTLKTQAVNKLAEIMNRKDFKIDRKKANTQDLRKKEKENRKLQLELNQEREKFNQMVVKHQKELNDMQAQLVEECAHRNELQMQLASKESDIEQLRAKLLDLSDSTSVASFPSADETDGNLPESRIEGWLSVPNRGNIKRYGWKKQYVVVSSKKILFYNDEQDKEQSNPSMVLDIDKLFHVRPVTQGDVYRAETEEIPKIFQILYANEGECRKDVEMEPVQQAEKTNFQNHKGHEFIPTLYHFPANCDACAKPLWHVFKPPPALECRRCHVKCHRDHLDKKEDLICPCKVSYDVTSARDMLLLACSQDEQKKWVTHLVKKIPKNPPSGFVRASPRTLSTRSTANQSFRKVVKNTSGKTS
Source text for ROCK2: as §2

In general, IC50 refers to the midpoint of a concentration-inhibition curve. The Ki is a dissociation constant, usually derived from enzyme kinetics or from competition with a known ligand. Higher therefore signals weaker binding. Turning to `O=C(COc1cccc(-c2nccc(Nc3ccc4[nH]ncc4c3)n2)c1)N[C@@H]1CCNC1` [Example 12, (R)-2-(3-(4-((1H-indazol-5-yl)amino)pyrimidin-2-yl)phenoxy)-N-(pyrrolidin-3-yl)acetamide HCl salt], at ROCK1 [1], the concentration for half-maximal inhibition (IC50) came out at 1770 nM and the Ki came out at 70 nM.

As for `CC(C)NC(=O)COc1cccc(-c2ncc(OCCN(C)C)c(Nc3ccc4[nH]ncc4c3)n2)c1` [Example 43, 2-(3-(4-((1H-indazol-5-yl)amino)-5-(2-(dimethylamino)ethoxy)pyrimidin-2-yl)phenoxy)-N-isopropylacetamide TFA salt], the IC50 is 750 nM on ROCK1 [2] and 25 nM on ROCK2 (setting [8]). In assay [3], the intraocular inflammation entry is “less”. The macular perfusion result in assay [3] is “less”.

Regarding `CC(C)NC(=O)COc1cccc(-c2nc(Nc3ccc4[nH]ncc4c3)cc(N3CCCNCC3)n2)c1` [Example 121, 2-(3-(4-((1H-indazol-5-yl)amino)-6-(1,4-diazepan-1-yl)pyrimidin-2-yl)phenoxy)-N-isopropylacetamide], the IC50 stood at 1390 nM against ROCK1 [2] and 13 nM at ROCK2 (setting [8]).

For `O=C(Oc1cccc(-c2nccc(Nc3ccc4[nH]ncc4c3)n2)c1)N1CCOCC1` [Example 129, 3-(4-((1H-indazol-5-yl)amino)pyrimidin-2-yl)phenyl morpholine-4-carboxylate], the values for the IC50 against ROCK1 [2] and on ROCK2 (setting [8]) were 1100 nM and 10 nM, respectively.

Compound `CN(C)C(=O)Oc1cccc(-c2nccc(Nc3ccc4[nH]ncc4c3)n2)c1` [Example 131, 3-(4-((1H-indazol-5-yl)amino)pyrimidin-2-yl)phenyl dimethylcarbamate] gave an IC50 against ROCK2 of 39 nM.

For `c1cc(OCc2ccncc2)cc(-c2nccc(Nc3ccc4[nH]ncc4c3)n2)c1` [Example 136, N-(2-(3-(pyridin-4-ylmethoxy)phenyl)pyrimidin-4-yl)-1H-indazol-5-amine], the IC50 on ROCK1 [2] amounted to 170 nM.

For `COCCOc1cccc(-c2nccc(Nc3ccc4[nH]ncc4c3)n2)c1` [Example 138, N-(2-(3-(2-methoxyethoxyl)phenyl)pyrimidin-4-yl)-1H-indazol-5-amine], the IC50 at ROCK1 [2] amounted to 1980 nM; at ROCK2 (setting [8]) it was 8 nM.

For the compound `COc1cccc(-c2nccc(Nc3ccc4[nH]ncc4c3)n2)c1` [Example 140, N-(2-(3-methoxyphenyl)pyrimidin-4-yl)-1H-indazol-5-amine], the figures for the concentration for half-maximal inhibition (IC50) at ROCK1 [2] and at ROCK2 (setting [8]) were 1910 nM and 55 nM, respectively.

Take `c1cc(OCCN2CCOCC2)cc(-c2nccc(Nc3ccc4[nH]ncc4c3)n2)c1` [Example 144, N-(2-(3-(2-morpholinoethoxyl)phenyl)pyrimidin-4-yl)-1H-indazol-5-amine]: the IC50 at ROCK1 [2] came out at 1930 nM; at ROCK2 (setting [8]), 58 nM.

As to `CC(N)c1cccc(-c2nccc(Nc3ccc4[nH]ncc4c3)n2)c1` (centres unmarked) [Example 147, N-(2-(3-(1-aminoethyl)phenyl)pyrimidin-4-yl)-1H-indazol-5-amine], the IC50 against ROCK1 [2] was greater than 2000 nM; on ROCK2 (setting [8]), greater than 5500 nM.

Turning to `CC(C)NCCOc1cccc(-c2nccc(Nc3ccc4[nH]ncc4c3)n2)c1` [Example 154, N-(2-(3-(2-(isopropylamino)ethoxy)phenyl)pyrimidin-4-yl)-1H-indazol-5-amine], in assay [4], the “bleeding (post operative rebleed)” value is “reduced” and the macular edema result was “reduced”.

Take `CC(C)NC(=O)COc1cccc(-c2nc(Nc3ccc4[nH]ncc4c3)cc(C(F)(F)F)n2)c1` [Example 169]: the IC50 against ROCK1 [2] and on ROCK2 (setting [8]) was greater than 10000 nM each time.

For `CC(C)NC(=O)COc1cccc(-c2nc(Nc3ccc4[nH]ncc4c3)c3ccccc3n2)c1` [SLx-2119], in [5] (setting [9]), the “frequency of IFN-γ-producing cells” value is listed as “significantly reduced” and the “frequency of IL-17-producing cells” value is listed as “significantly reduced”. In [5] (setting [10]), the IFN-γ secretion entry is given as “significantly down-regulated”, the IL-17 secretion entry is “significantly down-regulated” and the IL-21 secretion result is “significantly down-regulated”. In addition, the “phosphorylation of STAT3” value in the assay with STAT3 phosphorylation (T cells pre-treated, then stimulated with anti-CD3/CD28 antibodies) is recorded as “reduced”. In the assay on STAT3 phosphorylation (Th17-skewing conditions 5 days, then treated 3 hours), the STAT3 phosphorylation entry was “reduced”. The “ability of T cells to proliferate in response to TCR stimulation” value in the assay with CD4+ human T cells [6] is given as “down-regulated”. Besides, in the assay on CD4+ human T cells [7] (dose-dependent), the IL-17 secretion entry is recorded as “significantly inhibited” and the IL-21 secretion result is given as “significantly inhibited”. In addition, in the assay on CD4+ human T cells [7] (high dose 10 μM), the “inhibition of IFN-γ secretion” value is “less robust and significant only at high dose”.
